Measurements as given in publication PMC10706865, “Repurposing Study of 4-Acyl-1-phenylaminocarbonyl-2-substituted-piperazine Derivatives as Potential Anticancer Agents—In Vitro Evaluation against Breast Cancer Cells” (International Journal of Molecular Sciences, 2023).
Several values for one entry are separate records, joined by “and”; a condition that tells them apart may be missing. Equal entries are not always repeated. Where two headings read alike, the source gives them in different places.

Columns and labels:
[1] = test system: MCF7 human breast cancer cells; experiment: MTT cell viability assay, MCF7 breast cancer cells; format: cell-based; conditions: for IC50: MTT assay; for Selectivity Index: IC50 MCF 10A divided by IC50 MCF7, 72 h, MTT
Procedure: (§1) To evaluate the cytotoxicity of our compounds against cancer cells, they were evaluated in vitro against MCF7 human breast cancer cells. To examine the selectivity of our compounds, they were also studied against MCF 10A human normal cells. Both cell lines were exposed to different concentrations of our compounds for 72 h before measuring cell viability with the 3-(4,5-dimethylthiazol-2-yl)-2,5-diphenyltetrazolium bromide (MTT) assay (for conditions of the MTT assay, see the Experimental Part, Section 3). Docetaxel, an anticancer drug used in clinics, was tested under the same experimental conditions. Data were obtained from at least two independent experiments and were expressed as means ± standard error of means (SEM). The half-maximal inhibitory concentration (IC50) value of each compound was calculated, and the results are collected in Table 2. To evaluate the selective activity of our compounds, the selectivity index (SI) was also calculated. The curves of cell viability of MCF7 cancer cells and MCF 10A normal cells after the treatment with our compounds are shown (Figure 5, Figure 6, Figure 7, Figure 8 and Figure 9 and Figures S1–S4).
(§2) Exponentially growing cells were seeded into 96-well plates, and drugs were added 24 h later. Each compound was dissolved with DMSO (Panreac Applichem) to prepare a stock solution (100 mM). The working solutions of specific concentrations were prepared via the dilution of the stock solutions in the culture medium and were immediately used to treat the cells. The remaining stock solutions were aliquoted and frozen at −40 °C. We used different aliquots in each independent experiment to avoid the freeze–thaw cycles. Cells were exposed to the drugs for 72 h. After these 72 h, cell viability was determined with the MTT assay or the resazurin assay. These assays are colorimetric techniques that are widely used to determine cell viability.
(§3) The MTT assay is based on the capability of viable cells to transform the MTT salt into a purple formazan dye. After an incubation period of the cells with the MTT and a solubilization step, the quantity of the colored product is measured with a plate reading spectrophotometer. […] The quantity of formazan produced is presumably proportional to the number of viable cells. After seeding for 24 h, cells were treated with the tested drugs for 72 h. Then, medium was removed, and 125 μL of MTT (1 mg/mL in medium) was added to each well for 3–4 h. Subsequently, 80 μL of 20% sodium dodecyl sulfate (Panreac Applichem) in 20 mM hydrochloric acid (Panreac Applichem) was added to dissolve the insoluble purple formazan product, plates were incubated for 10 h at 37 °C, and optical densities were measured at 540 nm on a multiwell plate spectrophotometer reader.
(§4) In both assays, cell viability was expressed as percentage in relation to controls. All data were averaged from at least two independent experiments and were expressed as mean ± standard error of the mean (SEM). Selectivity indices (SI) were calculated by dividing the IC50 values in the nonmalignant cells by those in the cancer cells.

[2] = test system: MCF 10A human normal breast cells; experiment: MTT cell viability assay, MCF 10A normal breast cells; format: cell-based
Procedure: as §1, §2, §3, §4

[3] = Homo sapiens, MCF7, 72 h, 72 h exposure, read-out: IC50 (Mean ± SEM; μM) MCF7 (Cancer)
[4] = 72 h exposure, read-out: IC50 (Mean ± SEM; μM) MCF 10A (Normal)
[5] = 72 h exposure, read-out: IC50 (Mean ± SEM; μM) MCF7 (Cancer)

| SMILES | IC50 [1, 3] [µM] | Selectivity Index [1] | IC50 [2, 4] [µM] | IC50 [1, 5] [µM] | IC50 ([1]; Homo sapiens, MCF7, 72 h, docetaxel line in nM, 72 h, read-out: IC50 (Mean ± SEM) MCF7 (Cancer)) [µM] | IC50 ([2]; docetaxel line in nM, 72 h, read-out: IC50 (Mean ± SEM) MCF 10A (Normal)) [µM] |
| --- | --- | --- | --- | --- | --- | --- |
| CC1CN(C(=O)C(C)(C)C)CCN1C(=O)Nc1ccc([N+](=O)[O-])cc1 (stereo not drawn) [Compound 7] | 60.8 ± 1.2 | 0.6 ± 0.1 | 38.5 ± 4.6 | – | – | – |
| COc1ccc(NC(=O)N2CCN(C(=O)C(C)(C)C)CC2C)cc1 (stereo not drawn) [Compound 8] | 118 ± 48.7 | 5.2 ± 3.1 | 541 ± 259 | – | – | – |
| CC1CN(C(=O)C(C)(C)C)CCN1C(=S)Nc1ccc([N+](=O)[O-])cc1 (stereo not drawn) [Compound 9] | < 20 | 4.2 ± 1.0 | 58.2 ± 18.3 | 15.8 ± 8.2 | – | – |
| CC1CN(C(=O)c2ccccc2)CCN1C(=O)Nc1ccc([N+](=O)[O-])cc1 (stereo not drawn) [Compound 10] | 26.7 ± 3.3 | 1.3 ± 0.1 | 34.1 ± 1.7 | – | – | – |
| COc1ccc(NC(=O)N2CCN(C(=O)c3ccccc3)CC2C)cc1 (stereo not drawn) [Compound 11] | 359 ± 74.7 | 1.4 ± 0.4 | 478 ± 35.6 | – | – | – |
| CC1CN(C(=O)OC(C)(C)C)CCN1C(=O)Nc1ccc([N+](=O)[O-])cc1 (stereo not drawn) [Compound 12] | 34.6 ± 4.8 | 2.4 ± 0.0 | 84.2 ± 12.4 | – | – | – |
| COc1ccc(NC(=O)N2CCN(C(=O)OC(C)(C)C)CC2C)cc1 (stereo not drawn) [Compound 13] | 250 ± 19.4 | 3.6 ± 0.6 | 915 ± 226 | – | – | – |
| CC1CN(C(=O)OC(C)(C)C)CCN1C(=S)Nc1ccc([N+](=O)[O-])cc1 (stereo not drawn) [Compound 14] | 34.2 ± 0.1 | 1.0 ± 0.1 | 35.6 ± 4.5 | – | – | – |
| CC1CN(C(=O)OC(C)(C)C)CCN1C(=O)Nc1ccc(Cl)cc1 (stereo not drawn) [Compound 15] | 43.4 ± 3.7 | 3.8 ± 1.1 | 170 ± 61.6 | – | – | – |
| CC1CN(C(=O)OC(C)(C)C)CCN1C(=O)Nc1ccc(C(F)(F)F)cc1 (stereo not drawn) [Compound 16] | 31.3 ± 3.6 | 1.9 ± 0.4 | 60.1 ± 19.8 | – | – | – |
| CC1CN(C(=O)OC(C)(C)C)CCN1C(=O)Nc1ccc(C(F)(F)F)c(Cl)c1 (stereo not drawn) [Compound 17] | 22.7 ± 1.6 | 1.9 ± 0.2 | 41.7 ± 4.1 | – | – | – |
| CC1CN(C(=O)c2cc3ccccc3o2)CCN1C(=O)Nc1ccc([N+](=O)[O-])cc1 (stereo not drawn) [Compound 18] | < 20 | 2.5 ± 0.2 | 30.4 ± 1.8 | 12.1 ± 0.6 | – | – |
| CC1CN(C(=O)c2cc3ccccc3o2)CCN1C(=O)Nc1ccc(Cl)cc1 (stereo not drawn) [Compound 19] | 30.5 ± 1.1 | – | 261 ± 2.6 | – | – | – |
| CC1CN(C(=O)c2cc3ccccc3o2)CCN1C(=O)Nc1ccc(C(F)(F)F)cc1 (stereo not drawn) [Compound 20] | 31.7 ± 4.1 | – | 244 ± 8.2 | – | – | – |
| CC1CN(C(=O)c2cc3ccccc3o2)CCN1C(=O)Nc1ccc(C#N)cc1 (stereo not drawn) [Compound 21] | < 20 | 1.6 ± 0.2 | 31.2 ± 2.8 | 19.4 ± 3.8 | – | – |
| CC1CN(C(=O)c2cc3ccccc3o2)CCN1C(=O)Nc1ccccc1[N+](=O)[O-] (stereo not drawn) [Compound 22] | 28.1 ± 1.2 | 1.2 ± 0.1 | 32.4 ± 1.9 | – | – | – |

| SMILES | IC50 [1, 3] [µM] | Selectivity Index [1] | IC50 [2, 4] [µM] | IC50 [1, 5] [µM] | IC50 ([1]; Homo sapiens, MCF7, 72 h, docetaxel line in nM, 72 h, read-out: IC50 (Mean ± SEM) MCF7 (Cancer)) [µM] | IC50 ([2]; docetaxel line in nM, 72 h, read-out: IC50 (Mean ± SEM) MCF 10A (Normal)) [µM] |
| --- | --- | --- | --- | --- | --- | --- |
| COc1ccccc1NC(=O)N1CCN(C(=O)c2cc3ccccc3o2)CC1C (stereo not drawn) [Compound 23] | 31.4 ± 5.5 | 2.3 ± 0.6 | 74.7 ± 30.2 | – | – | – |
| CC1CN(C(=O)c2cc3ccccc3o2)CCN1C(=O)Nc1ccccc1Br (stereo not drawn) [Compound 24] | 25.3 ± 1.6 | 1.3 ± 0.1 | 33.5 ± 3.5 | – | – | – |
| CC1CN(C(=O)c2cc3ccccc3o2)CCN1C(=O)Nc1ccccc1 (stereo not drawn) [Compound 25] | 48.5 ± 10.1 | 3.2 ± 0.7 | 161 ± 64.6 | – | – | – |
| CC(C)(C)OC(=O)N1CCN(C(=O)Nc2ccc([N+](=O)[O-])cc2)C(c2ccccc2)C1 (stereo not drawn) [Compound 26] | – | 15.2 ± 11.1 | 71.3 ± 3.6 | – | – | – |
| CC(C)(C)OC(=O)N1CCN(C(=O)Nc2ccc(Cl)cc2)C(c2ccccc2)C1 (stereo not drawn) [Compound 27] | < 20 | 2.2 ± 0.9 | 33.8 ± 6 | 16.8 ± 4 | – | – |
| CC(C)(C)OC(=O)N1CCN(C(=O)Nc2ccc(C#N)cc2)C(c2ccccc2)C1 (stereo not drawn) [Compound 28] | < 20 | 2.7 ± 0.8 | 55.2 ± 24.4 | 19.5 ± 3.5 | – | – |
| CC(C)(C)OC(=O)N1CCN(C(=O)Nc2ccc(F)cc2)C(c2ccccc2)C1 (stereo not drawn) [Compound 29] | 24.8 ± 1.7 | 2.2 ± 0.5 | 56.3 ± 16.5 | – | – | – |
| CC(C)(C)OC(=O)N1CCN(C(=O)Nc2ccccc2[N+](=O)[O-])C(c2ccccc2)C1 (stereo not drawn) [Compound 30] | 24.3 ± 3.4 | 2.6 ± 0.1 | 63.2 ± 10.9 | – | – | – |
| COc1ccc(NC(=O)N2CCN(C(=O)OC(C)(C)C)CC2c2ccccc2)cc1 (stereo not drawn) [Compound 33] | 130 ± 31.4 | 2.6 ± 0.4 | 325 ± 27.6 | – | – | – |
| Cc1ccc(NC(=O)N2CCN(C(=O)OC(C)(C)C)CC2c2ccccc2)cc1 (stereo not drawn) [Compound 34] | 24.4 ± 3.1 | 2.9 ± 0.5 | 68.7 ± 2.8 | – | – | – |
| O=C(c1cc2ccccc2o1)N1CCN(C(=O)Nc2ccc(Cl)cc2)C(c2ccccc2)C1 (stereo not drawn) [Compound 36] | 41.3 ± 4.2 | 4.0 ± 0.9 | 161 ± 16.5 | – | – | – |
| O=C(c1cc2ccccc2o1)N1CCN(C(=O)Nc2cc(C(F)(F)F)ccc2Cl)C(c2ccccc2)C1 (stereo not drawn) [Compound 38] | 91.9 ± 35.7 | 1.4 ± 0.3 | 117 ± 21.1 | – | – | – |
| O=C(c1cc2ccccc2o1)N1CCN(C(=O)Nc2ccccc2[N+](=O)[O-])C(c2ccccc2)C1 (stereo not drawn) [Compound 39] | 226 ± 175 | >2.5 | > 1000 | – | – | – |
| CC1CN(C(=O)c2cc3ccccc3o2)CCN1C(=O)NC12CC3CC(CC(C3)C1)C2 (stereo not drawn) [Compound 41, 4-(Benzofuran-2-carbonyl)-2-methyl-1-[(1-adamantyl)aminocarbonyl]piperazine] | 17.7 ± 5 | 5.1 ± 2.3 and ~ 5 | 103 ± 66.9 | < 20 | – | – |
| CC(=O)O[C@@]12CO[C@@H]1C[C@H](O)[C@@]1(C)C(=O)[C@H](O)C3=C(C)[C@@H](OC(=O)[C@H](O)[C@@H](NC(=O)OC(C)(C)C)c4ccccc4)C[C@@](O)([C@@H](OC(=O)c4ccccc4)[C@H]21)C3(C)C [Docetaxel, reference compound] | – | ˂1 | – | – | 0.0761 ± 0.0262 | < 0.001 |
